From patent US4349546A, “D-Allose derivative and preparation method therefor” (Wakamoto Pharmaceutical Co., Ltd., priority 1980, dated 1982)

System: Lewis lung carcinoma cells
Assay: Test of therapeutical effects on Lewis lung carcinoma (Test Example 3)
Assay type: in vivo, BDF mice
Settings: for Number of survivals: 60 days
Source text: (1) Test animals: About 6-week old BDF mice each weighing 22±1 g; one group comprising 7 male mice.
5×10^5 Lewis lung carcinoma cells per mouse were implanted under the skin of each mouse. […] The rate of apothanasia and number of survivals after 60 days were examined.
*"day 1-9" in the column of "Method of Administration" indicates
continuous administration once/day for 9 days subsequently to "day 1".

## O=NN(CCCl)C(=O)N[C@@H]1[C@H](O)[C@@H](CO)OC(O)[C@@H]1O (stereo partly drawn) [CNUA, 3-[3-(2-chloroethyl)-3-nitrosoureido]-3-deoxy-D-allose]
2.23 mg/kg/day, ip, day 1-9
  ILS (rate of apothanasia): 4%
  Number of survivals: 0/7
4.45 mg/kg/day, ip, day 1-9
  ILS (rate of apothanasia): 21%
  Number of survivals: 1/7
5 mg/kg/day, ip, day 1
  ILS (rate of apothanasia): 0%
  Number of survivals: 0/7
6.67 mg/kg/day, ip, day 1-9
  ILS (rate of apothanasia): 29%
  Number of survivals: 0/7
10 mg/kg/day, ip, day 1
  ILS (rate of apothanasia): 0%
  Number of survivals: 0/7
15 mg/kg/day, iv, day 1
  ILS (rate of apothanasia): 35%
  Number of survivals: 0/7
20 mg/kg/day, ip, day 1
  ILS (rate of apothanasia): 68%
  Number of survivals: 2/7
30 mg/kg/day, iv, day 1
  ILS (rate of apothanasia): 80%
  Number of survivals: 1/7
40 mg/kg/day, ip, day 1
  ILS (rate of apothanasia): > 172%
  Number of survivals: 6/7
40 mg/kg/day, iv, day 1
  ILS (rate of apothanasia): > 200%
  Number of survivals: 6/7
50 mg/kg/day, iv, day 1
  ILS (rate of apothanasia): > 200%
  Number of survivals: 5/7
